Reference: patent US8575338B2, “Pyrimidine, pyridine and triazine derivatives as maxi-K channel openers” (Mitsubishi Tanabe Pharma Corporation, priority 2008, dated 2013)

Target: T1, human BKαβ1 channels (Homo sapiens, UniProt Q12791)
T1 construct: expressed in transfected cells; host or cells: CHO cells (G418 and hygromycin selection)
Assay: BK current in CHO cells expressing human BKαβ1 (PatchXpress whole-cell patch clamp), EC100
Type: cell-based
Details: drug concentration causing 100% increase of BK current
Method: Methods for Testing Compounds on Human BKαβ1 Channels Expressed Cho Cells
CHO cells expressing human BKαβ1 were cultured in T75 or 6 well cell culture cluster. Medium: DMEM/F12+10% FBS+0.5 mg/mL G418/genetecin+0.1 mg/mL Hygromycin. Split cells every 3-4 days at 80-90% confluence. Use cells for experiments 60-72 hrs after re-passage and at ˜90% confluence.
Trypsin solution (0.05% Trypsin+0.1% EDTA), Ca^2+ free PBS and culture medium were warmed to 37° C. Inspect the T75 flask for cell confluence. Remove culture medium and add warm Ca^2+ free PBS to wash cells. Remove Ca^2+ free PBS and add warm Trypsin solution. Put the T75 flask back to 37° C. incubator for about 4.5 minutes. Stop Trypsin activity by adding culture medium. Spin the cells down. Suspend cells in 120-160 μL external solution for BK current recording and use the cells as soon as possible.
PatchXpress Sealchip 16 electrodes (AVIVA Biosciences) and PatchXpress 7000A (Axon Instruments, Inc) were used for BK current recording. Flat bottom 1.5 mL glass vial (HiPep Laboratories) were used for containing external solutions (±compounds). The holes in the sealchip (equivalent to patch electrode) had resistance about 1.5 MΩ. Cell membrane capacitance was compensated and access resistance was also compensated by 40%. Voltage-clamp protocol: Holding voltage=0 mV. Record BK current during 200-ms steps between +80 to +120 mV in 10 mV increments and 2 sec inter-pulse interval. On-line digital leak subtraction was performed by a P/−4 procedure. After whole-cell configuration was established, 2 minute was used to optimize access resistance. Then the chamber was washed with control bath solution for 1 minute to remove excessive cells. Control bath solution was added with robotic pipette and control BK current was recorded after 1 minute equilibrium time. For each drug concentration, 45 μL drug solution was added three times with “suction before adding” mode which left old solution. For each drug addition, 1 minute equilibrium time was given. BK current was measured at each drug concentrations (usually within 3.5 minutes after first drug addition). Calculate % change of BK current at the voltage step when the control BK current first exceeding 200 pA. If the control BK current was less than 200 pA at 120 mV, the cell was not used. % changes were calculated as 100*(Id−Ic)/Ic, where Id was the current amplitude in the presence of drug and Ic was the control current amplitude.
EC100 was defined as the drug concentration causing 100% increase of BK current calculated by the method described above. EC100 was determined by the data points just below and above 100%. % Increase of BK current was plotted against log [drug concentration]. A straight line connected two data points flanking 100%. From this straight line, the concentration corresponding to 100% increase of BK current was determined as EC100.
Compounds were dissolved in DMSO to make 10 mM stock solutions. Subsequent dilutions were made with external solution. The testing drug concentrations were 0.1, 0.3, 1, 3 and 10 μM depending on the potency of compounds. The highest DMSO concentration was 0.1%. External solution (in mM): 140 NaCl, 4 KCl, 1 MgCl2, 2 CaCl2, 10 Glucose, 10 HEPES; pH=7.4 with NaOH. Internal solution (in mM): 140 KCl, 5 EGTA, 1 MgCl2, 5 MgATP, 0.2 CaCl2, 5 HEPES; pH=7.2 with KOH.

T1 sequence (Q12791 whole entry): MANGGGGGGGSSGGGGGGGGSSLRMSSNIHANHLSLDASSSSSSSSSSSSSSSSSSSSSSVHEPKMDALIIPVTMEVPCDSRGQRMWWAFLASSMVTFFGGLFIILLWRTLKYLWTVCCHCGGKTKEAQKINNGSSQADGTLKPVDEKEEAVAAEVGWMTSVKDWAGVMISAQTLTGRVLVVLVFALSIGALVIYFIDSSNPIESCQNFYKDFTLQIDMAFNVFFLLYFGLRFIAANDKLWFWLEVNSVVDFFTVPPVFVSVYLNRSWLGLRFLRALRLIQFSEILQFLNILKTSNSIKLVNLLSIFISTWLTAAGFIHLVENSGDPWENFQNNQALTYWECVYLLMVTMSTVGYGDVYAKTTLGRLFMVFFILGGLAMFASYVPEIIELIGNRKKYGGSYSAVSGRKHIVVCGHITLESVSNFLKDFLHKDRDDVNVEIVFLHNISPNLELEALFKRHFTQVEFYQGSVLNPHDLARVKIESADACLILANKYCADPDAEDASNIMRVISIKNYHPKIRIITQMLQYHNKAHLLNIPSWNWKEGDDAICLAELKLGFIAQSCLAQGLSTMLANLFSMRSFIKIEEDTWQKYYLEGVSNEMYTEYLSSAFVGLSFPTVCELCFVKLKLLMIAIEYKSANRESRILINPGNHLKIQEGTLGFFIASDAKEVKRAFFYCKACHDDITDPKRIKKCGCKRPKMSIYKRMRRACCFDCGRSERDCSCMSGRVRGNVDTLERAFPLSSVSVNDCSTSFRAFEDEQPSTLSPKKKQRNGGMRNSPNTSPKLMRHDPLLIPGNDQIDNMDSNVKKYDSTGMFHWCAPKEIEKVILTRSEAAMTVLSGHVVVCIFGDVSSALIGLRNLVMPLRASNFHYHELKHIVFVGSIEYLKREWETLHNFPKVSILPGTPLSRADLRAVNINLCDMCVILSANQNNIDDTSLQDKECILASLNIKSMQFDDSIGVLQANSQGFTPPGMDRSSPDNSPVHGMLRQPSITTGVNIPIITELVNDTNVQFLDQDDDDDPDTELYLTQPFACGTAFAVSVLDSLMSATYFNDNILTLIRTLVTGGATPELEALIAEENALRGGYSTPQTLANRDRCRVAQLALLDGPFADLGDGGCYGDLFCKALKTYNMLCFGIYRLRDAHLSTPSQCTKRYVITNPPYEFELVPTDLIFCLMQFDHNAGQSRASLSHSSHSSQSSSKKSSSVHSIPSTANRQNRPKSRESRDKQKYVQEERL
T1 sequence (Q16558 whole entry partner): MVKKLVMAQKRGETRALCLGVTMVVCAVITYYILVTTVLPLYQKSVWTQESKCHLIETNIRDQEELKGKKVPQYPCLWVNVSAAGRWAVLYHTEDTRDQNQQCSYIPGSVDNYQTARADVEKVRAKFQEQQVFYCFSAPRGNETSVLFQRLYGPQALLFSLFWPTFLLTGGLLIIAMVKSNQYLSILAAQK

| EC100 | Compound |
| --- | --- |
| 0.62 µM | CCOc1ccc(-c2cc(OC3(C(=O)O)CC3)nc(-c3ccc(F)cc3)n2)c(C)c1 [Example 897] |
| 0.36 µM | COc1ccc(Cl)c(-c2cc(OC3(C(=O)O)CC3)nc(-c3ccc(F)cc3)n2)c1 [Example 900] |
| 0.14 µM | Cc1cc(C(F)(F)F)ccc1-c1cc(OC2(C(=O)O)CC2)nc(-c2ccc(F)cc2)n1 [Example 905] |
| 0.15 µM | Cc1ccc(C(F)(F)F)cc1-c1cc(OC2(C(=O)O)CC2)nc(-c2ccc(F)cc2)n1 [Example 906] |
| 0.2 µM | N#Cc1cc(Cl)ccc1-c1cc(OC2(C(=O)O)CC2)nc(-c2ccc(Cl)cc2)n1 [Example 918] |
| 0.1 µM | COCc1cc(Cl)ccc1-c1cc(OC2(C(=O)O)CC2)nc(-c2ccc(Cl)cc2)n1 [Example 921] |
| 0.34 µM | Cc1c(OC2(C(=O)O)CC2)nc(-c2ccc(Cl)cc2)nc1-c1ccc(F)cc1 [Example 1015] |
| 0.5 µM | COc1ccc(-c2nc(-c3ccc(Cl)cc3)nc(OC3(C(=O)O)CC3)c2C)cc1 [Example 1016] |
| 0.17 µM | CCOCc1ccc(-c2cc(OC3(C(=O)O)CC3)nc(-c3ccc(Cl)cc3)n2)c(C)c1 [Example 1034] |
| 0.36 µM | Cc1cc(F)ccc1-c1cc(OC2(C(=O)O)CC2)nc(-c2ccc(F)cc2)c1 [Example 1087] |
| 0.14 µM | Cc1cc(Cl)ccc1-c1nc(OC2(C(=O)[O-])CC2)nc(-c2ccc(Cl)cc2)n1.[Na+] [Example 1088] |
| 0.02 µM | Cc1cc(C(F)(F)F)ccc1-c1nc(OC2(C(=O)O)CC2)nc(-c2ccc(Cl)cc2)n1 [Example 1092] |
| 0.3 µM | O=C([O-])C1(Oc2cc(N3CCc4ccc(F)cc4C3)nc(-c3ccc(Cl)cc3)n2)CC1.[Na+] [Example 1095] |
| 0.11 µM | O=C([O-])C1(Oc2cc(N3CCc4cc(F)ccc4C3)nc(-c3ccc(Cl)cc3)n2)CC1.[Na+] [Example 1096] |
| 0.11 µM | CN(Cc1cccc(F)c1)c1cc(OC2(C(=O)[O-])CC2)nc(-c2ccc(F)cc2)n1.[Na+] [Example 1098] |
| 0.38 µM | COc1ccc(CN(C)c2cc(OC3(C(=O)O)CC3)nc(-c3ccc(F)cc3)n2)cc1 [Example 1100] |
| 0.36 µM | O=C([O-])C1(Oc2cc(N3CCc4cc(F)ccc43)nc(-c3ccc(F)cc3)n2)CC1.[Na+] [Example 1108] |
| 0.07 µM | O=C([O-])C1(Oc2cc(N3CCc4ccc(F)cc4C3)nc(-c3ccc(F)cc3)n2)CC1.[Na+] [Example 1109] |
| 0.12 µM | O=C([O-])C1(Oc2cc(N3CCc4ccc(Cl)cc4C3)nc(-c3ccc(F)cc3)n2)CC1.[Na+] [Example 1111] |
| 0.41 µM | CCCOC1CCN(c2nc(-c3ccc(Cl)cc3)nc(OC3(C(=O)O)CC3)c2C)CC1 [Example 1114] |
| 1.74 µM | COCC1CCN(c2nc(-c3ccc(Cl)cc3)nc(OC3(C(=O)O)CC3)c2C)CC1 [Example 1115] |
| 1.31 µM | CCOCC1CCN(c2nc(-c3ccc(Cl)cc3)nc(OC3(C(=O)O)CC3)c2C)CC1 [Example 1116] |
| 0.13 µM | CCCOC1CCN(c2nc(OC3(C(=O)O)CC3)cc(-c3ccc(C)c(Cl)c3)n2)CC1 [Example 1148] |
| 0.34 µM | CCCOC1CCN(c2nc(OC3(C(=O)O)CC3)cc(-c3ccc(F)c(C(F)(F)F)c3)n2)CC1 [Example 1153] |
| 1.03 µM | CC(C)COC1CCN(c2nc(OC3(C(=O)O)CC3)cc(-c3ccc(Cl)cc3)n2)CC1 [Example 1182] |
| 0.02 µM | O=C(O)C1(Oc2cc(-c3ccc(Cl)cc3)nc(N3CCc4ccc(F)cc4C3)n2)CC1 [Example 1191] |
| 0.04 µM | O=C(O)C1(Oc2cc(-c3ccc(Cl)cc3)nc(N3CCc4cc(F)ccc4C3)n2)CC1 [Example 1192] |
| 0.2 µM | O=C([O-])C1(Oc2cc(-c3ccc(Cl)s3)nc(N3CCc4ccc(F)cc4C3)n2)CC1.[Na+] [Example 1202] |
| 0.01 µM | O=C(O)C1(Oc2cc(-c3ccc(Cl)s3)nc(N3CCc4cc(F)ccc4C3)n2)CC1 [Example 1203] |
| 0.54 µM | CCOC1CCN(c2nc(OC3(C(=O)O)CC3)cc(-c3cc(Cl)c(Cl)s3)n2)CC1 [Example 1216] |

Further lines, the compound ahead of its results:

| Compound | EC100 |
| --- | --- |
| CCOc1cc(F)cc(-c2nc(-c3ccc(F)cc3)nc(OC3(C(=O)[O-])CC3)c2C)c1.[Na+] [Example 978] | 0.12 µM |
| COc1ccc(-c2nc(-c3ccc(F)cc3)nc(OC3(C(=O)[O-])CC3)c2C)cc1Cl.[Na+] [Example 982] | 0.1 µM |
| COc1cc(-c2nc(-c3ccc(F)cc3)nc(OC3(C(=O)[O-])CC3)c2C)ccc1Cl.[Na+] [Example 993] | 0.13 µM |
| COc1cc(-c2nc(-c3ccc(F)cc3)nc(OC3(C(=O)[O-])CC3)c2C)ccc1F.[Na+] [Example 996] | 0.58 µM |
| Cc1cc(-c2nc(-c3ccc(F)cc3)nc(OC3(C(=O)[O-])CC3)c2C)ccc1F.[Na+] [Example 999] | 0.14 µM |
| Cc1cc(F)cc(-c2nc(-c3ccc(F)cc3)nc(OC3(C(=O)[O-])CC3)c2C)c1.[Na+] [Example 1000] | 0.14 µM |
| Cc1c(OC2(C(=O)[O-])CC2)nc(-c2ccc(F)cc2)nc1-c1ccc(Cl)s1.[Na+] [Example 1007] | 0.1 µM |
| Cc1ccc(C(F)(F)F)cc1-c1nc(OC2(C(=O)[O-])CC2)nc(-c2ccc(Cl)cc2)n1.[Na+] [Example 1093] | 0.04 µM |
| Cc1cc(OC(F)(F)F)ccc1-c1nc(OC2(C(=O)[O-])CC2)nc(-c2ccc(Cl)cc2)n1.[Na+] [Example 1094] | 0.03 µM |
| Cc1c(OC2(C(=O)O)CC2)nc(-c2ccc(Cl)cc2)nc1N1CCC(OCC2CC2)CC1 [Example 1118] | 0.42 µM |
| CCCCOC1CCN(c2nc(-c3ccc(Cl)cc3)nc(OC3(C(=O)[O-])CC3)c2C)CC1.[Na+] [Example 1119] | 0.73 µM |
| CCOCC1CCN(c2nc(-c3ccc(F)cc3)nc(OC3(C(=O)O)CC3)c2C)CC1 [Example 1122] | 0.9 µM |
| COCCC1CCN(c2nc(-c3ccc(F)cc3)nc(OC3(C(=O)O)CC3)c2C)CC1 [Example 1123] | 0.95 µM |
| CCCCOC1CCN(c2nc(-c3ccc(F)cc3)nc(OC3(C(=O)[O-])CC3)c2C)CC1.[Na+] [Example 1125] | 0.5 µM |
| COCCCC1CCN(c2nc(-c3ccc(F)cc3)nc(OC3(C(=O)[O-])CC3)c2C)CC1.[Na+] [Example 1126] | 0.77 µM |
| CCCOC1CCN(c2nc(-c3ccc(Cl)cc3)nc(OC3(C(=O)[O-])CC3)c2F)CC1.[Na+] [Example 1129] | 0.61 µM |
| CCOCC1CCN(c2nc(-c3ccc(Cl)cc3)nc(OC3(C(=O)[O-])CC3)c2F)CC1.[Na+] [Example 1131] | 0.23 µM |
| COCCC1CCN(c2nc(-c3ccc(Cl)cc3)nc(OC3(C(=O)[O-])CC3)c2F)CC1.[Na+] [Example 1132] | 0.41 µM |
| CCCOCC1CCN(c2nc(-c3ccc(Cl)cc3)nc(OC3(C(=O)[O-])CC3)c2F)CC1.[Na+] [Example 1133] | 1.29 µM |
| CCOCC1CCN(c2nc(OC3(C(=O)[O-])CC3)cc(-c3ccc(Cl)s3)n2)CC1.[Na+] [Example 1197] | 0.15 µM |
| COCCC1CCN(c2nc(OC3(C(=O)O)CC3)cc(-c3cc(C)c(Cl)s3)n2)CC1 [Example 1208] | 0.96 µM |
| COCCCC1CCN(c2nc(OC3(C(=O)[O-])CC3)cc(-c3cc(C)c(Cl)s3)n2)CC1.[Na+] [Example 1215] | 0.39 µM |
